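Cultured in 96-well plates, cells were exposed to test compound for 48 hours across five concentrations. GI50: concentration for 50% inhibition of growth. TGI: total growth inhibition.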
Assays:
Test in all cases: inhibition of tumour cell growth, NCI panel, 48 h
HCC-2998 colon = test system: HCC-2998 colon
HCT-116 colon = test system: HCT-116 colon
MDA-MB-435 = test system: MDA-MB-435
COLO 205 colon = test system: COLO 205 colon
IGROV1 ovarian = test system: IGROV1 ovarian
786-0 renal = test system: 786-0 renal
PC-3 prostate = test system: PC-3 prostate
SR leukemia = test system: SR leukemia

Compound | GI50 (HCC-2998 colon) [µM] | TGI (HCC-2998 colon) [µM] | GI50 (HCT-116 colon) [µM] | TGI (HCT-116 colon) [µM] | GI50 (MDA-MB-435) [µM] | TGI (MDA-MB-435) [µM] | GI50 (COLO 205 colon) [µM] | TGI (COLO 205 colon) [µM] | GI50 (IGROV1 ovarian) [µM] | TGI (IGROV1 ovarian) [µM] | GI50 (786-0 renal) [µM] | TGI (786-0 renal) [µM] | GI50 (PC-3 prostate) [µM] | TGI (PC-3 prostate) [µM] | GI50 (SR leukemia) [µM] | TGI (SR leukemia) [µM]
Cc1ccc(O)cc1Nc1ccnc2cc(-c3ccccn3)ccc12 | 3.89 | 7.51 | 3.49 | 6.96 | 1.98 | 5.65 | 3.92 | 7.34 | 0.502 | 2.13 | 2.98 | 6.66 | 3.08 | 10.4 | – | –
Cc1nn2c(-c3nc4cc(Cl)c(Cl)cc4[nH]3)c(-c3ccc(F)cc3)nc2s1 | > 100 | > 100 | 1.3 | > 26 | 4.65 | > 100 | > 70.2 | > 100 | 5.42 | > 50.6 | 1.75 | 3.33 | 9.29 | > 100 | 42.9 | > 100
CCc1c(C#N)c(SC(C(N)=O)c2ccccc2)nc(N2CCC(N)CC2)c1C#N (stereo not drawn) | 14.1 | 27.1 | 13.5 | 27.4 | 15.4 | 29.6 | 14.2 | 27.8 | 14 | 27.9 | 14.8 | 28.3 | 12.9 | 26.5 | 16.2 | 38.1
CN(C)c1ccc2c(c1)OC(N)=C(C#N)C2c1ccc2c(c1)CCCN2C (stereo not drawn) | – | – | 1.6 | 14.6 | 0.305 | 1.28 | 2.44 | 6.51 | 4.03 | > 100 | 4.33 | > 100 | 2.64 | > 100 | 0.648 | 16.6
O=C(Nc1ccc(Br)cc1)Nc1cccc(Br)c1 | – | – | – | – | – | – | 4.1 | > 100 | 5.82 | > 100 | 34.5 | > 100 | – | – | 11.6 | > 100
CC(=O)OC1COC(Oc2c(C)c3c4c(c2O)[C@@H](C)CC[C@@H]4[C@@H](C)C[C@H]3C=C(C)C)C(O)C1O (stereo partly drawn) | 15.1 | 31.3 | 16.1 | 41.3 | 15.4 | 30.6 | 26.4 | > 100 | 20.1 | > 100 | 19.2 | 43.2 | 14.4 | 31.1 | 9.13 | 25.7
O=C(O)Cn1ccc(=O)c2c([N+](=O)[O-])cccc21 | – | > 100 | – | > 100 | – | > 100 | – | > 100 | – | > 100 | – | > 100 | – | > 100 | – | > 100
Oc1ccc(-c2[nH]c3ccccc3c2-c2nc3ccccc3o2)cc1 | 2.66 | 7 | 3.15 | 13 | 2.26 | 8.74 | 3.54 | 12.6 | 3.34 | 16.3 | 4.4 | 15.2 | 3.35 | 18.5 | 4.78 | 25.7
